Molecules are shown by their SMILES.

A short description of series [1]: Drug metabolism in human intestinal microsomes assessed as glucuronidation after 10 mins by Michaelis-Menten plot. In kind it is ADME, Intestine, Microsome.
In series [2] the target is T1, UDP-glucuronosyltransferase 2B4 (Homo sapiens, UniProt P06133).
T1 sequence (P06133 whole entry): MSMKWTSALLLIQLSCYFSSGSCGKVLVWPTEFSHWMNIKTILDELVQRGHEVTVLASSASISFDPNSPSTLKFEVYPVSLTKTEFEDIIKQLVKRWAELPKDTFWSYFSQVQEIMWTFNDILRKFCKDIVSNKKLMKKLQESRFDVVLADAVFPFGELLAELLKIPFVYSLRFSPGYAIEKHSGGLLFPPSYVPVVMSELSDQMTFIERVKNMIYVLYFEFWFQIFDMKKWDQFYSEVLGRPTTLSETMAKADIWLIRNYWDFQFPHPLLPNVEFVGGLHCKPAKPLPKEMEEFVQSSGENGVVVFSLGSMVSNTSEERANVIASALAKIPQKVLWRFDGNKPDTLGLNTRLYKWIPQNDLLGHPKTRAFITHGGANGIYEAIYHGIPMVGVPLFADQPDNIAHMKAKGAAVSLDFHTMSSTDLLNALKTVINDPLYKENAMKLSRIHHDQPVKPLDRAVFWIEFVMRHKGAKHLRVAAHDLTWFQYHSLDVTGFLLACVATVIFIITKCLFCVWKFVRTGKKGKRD
Put plainly: Activity of human recombinant UGT2B4 expressed in baculovirus-infected insect cells assessed as enzyme-mediated glucuronidation per mg of protein after 10 mins in presence of UDPGA. In kind it is ADME.

For series [3], the target named is T2, UDP-glucuronosyltransferase 1A10 (Homo sapiens, UniProt Q9HAW8).
T2 sequence (Q9HAW8 whole entry): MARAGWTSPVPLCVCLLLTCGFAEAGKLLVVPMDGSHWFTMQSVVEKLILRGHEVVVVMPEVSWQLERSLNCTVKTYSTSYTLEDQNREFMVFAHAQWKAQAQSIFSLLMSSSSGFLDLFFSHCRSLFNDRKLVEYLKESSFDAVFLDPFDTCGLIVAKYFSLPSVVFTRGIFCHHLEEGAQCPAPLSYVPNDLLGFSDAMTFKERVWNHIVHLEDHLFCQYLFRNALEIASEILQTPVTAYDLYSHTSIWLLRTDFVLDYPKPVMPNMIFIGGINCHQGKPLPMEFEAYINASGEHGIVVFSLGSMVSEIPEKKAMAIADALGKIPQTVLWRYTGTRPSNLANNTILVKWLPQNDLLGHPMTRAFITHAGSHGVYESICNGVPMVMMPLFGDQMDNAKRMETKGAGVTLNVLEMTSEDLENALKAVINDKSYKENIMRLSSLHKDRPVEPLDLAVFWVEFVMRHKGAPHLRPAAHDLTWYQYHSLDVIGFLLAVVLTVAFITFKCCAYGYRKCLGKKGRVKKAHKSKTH
Kind of series: Activity of human recombinant UGT1A10 expressed in baculovirus-infected insect cells assessed as intrinsic clearance for enzyme-mediated glucuronide formation per mg of protein at 1 to 250 uM after 10 mins in presence of UDPGA. The series is classed as ADME.

Series [4] in a line: Fraction unbound in human liver microsomes at 1 to 250 uM after 10 mins by ultrafiltration method in presence of 0.1% fatty acid free BSA. The series is classed as ADME. For orientation: Liver microsomes are vesicles of endoplasmic reticulum, rich in cytochrome P450 enzymes.
Series [5] deals with T3, UDP-glucuronosyltransferase 1A8 (Homo sapiens, UniProt Q9HAW9).
T3 sequence (Q9HAW9 whole entry): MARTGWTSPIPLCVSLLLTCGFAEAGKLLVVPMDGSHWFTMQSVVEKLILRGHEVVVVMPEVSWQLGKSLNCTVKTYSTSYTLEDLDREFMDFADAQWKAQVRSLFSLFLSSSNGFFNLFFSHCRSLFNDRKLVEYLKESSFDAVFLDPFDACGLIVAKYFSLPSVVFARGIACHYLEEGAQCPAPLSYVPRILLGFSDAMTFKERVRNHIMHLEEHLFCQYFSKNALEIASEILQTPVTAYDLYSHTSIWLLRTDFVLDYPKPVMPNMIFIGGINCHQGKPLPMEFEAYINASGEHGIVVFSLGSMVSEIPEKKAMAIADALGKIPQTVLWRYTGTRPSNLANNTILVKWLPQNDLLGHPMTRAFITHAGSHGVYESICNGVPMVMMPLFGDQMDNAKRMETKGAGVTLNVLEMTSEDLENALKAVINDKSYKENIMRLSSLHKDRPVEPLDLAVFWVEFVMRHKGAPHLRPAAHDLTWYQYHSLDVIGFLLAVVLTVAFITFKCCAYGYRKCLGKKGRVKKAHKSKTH
Kind of series: Ratio of Ki to Km for human recombinant UGT1A8 expressed in baculovirus-infected insect cells. In kind it is ADME. Conditions: recombinant enzyme.

Series [6] in a line: Substrate inhibition in human intestinal microsomes after 5 mins by Michaelis-Menten plot analysis in presence of UDPGA. In kind it is ADME, Intestine, Microsome.
Series [7] is described as follows: Drug metabolism in human liver microsomes assessed as glucuronidation after 10 mins by Michaelis-Menten plot analysis in presence of UDPGA. In kind it is ADME.
For series [8], the target named is T2, UDP-glucuronosyltransferase 1A10. Put plainly: Ratio of Ki to Km for human recombinant UGT1A10 expressed in baculovirus-infected insect cells. In kind it is ADME. As to conditions: recombinant enzyme.
Series [9] is described as follows: Ratio of Km for drug metabolism in human liver microsomes to Km for human recombinant UGT-mediated drug metabolism. In kind it is ADME. As to conditions: recombinant enzyme.
Series [10] concerns the target T4, UDP-glucuronosyltransferase 2B17 (Homo sapiens, UniProt O75795).
T4 sequence (O75795 whole entry): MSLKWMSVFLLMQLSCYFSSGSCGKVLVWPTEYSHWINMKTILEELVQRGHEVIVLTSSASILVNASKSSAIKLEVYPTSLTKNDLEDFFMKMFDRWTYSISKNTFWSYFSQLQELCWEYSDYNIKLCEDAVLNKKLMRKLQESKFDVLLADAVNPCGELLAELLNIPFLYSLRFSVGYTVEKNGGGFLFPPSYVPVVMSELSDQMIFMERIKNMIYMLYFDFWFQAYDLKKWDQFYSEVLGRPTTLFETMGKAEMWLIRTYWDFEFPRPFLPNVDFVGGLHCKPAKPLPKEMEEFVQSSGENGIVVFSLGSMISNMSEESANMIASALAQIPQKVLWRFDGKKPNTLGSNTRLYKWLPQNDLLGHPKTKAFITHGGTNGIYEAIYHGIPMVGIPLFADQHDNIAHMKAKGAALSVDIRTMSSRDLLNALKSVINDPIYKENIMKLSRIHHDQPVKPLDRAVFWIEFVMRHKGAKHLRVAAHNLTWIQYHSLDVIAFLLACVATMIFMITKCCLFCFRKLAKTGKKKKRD
Kind of series: Activity of human recombinant UGT2B17 expressed in baculovirus-infected insect cells assessed as enzyme-mediated glucuronidation per mg of protein after 10 mins in presence of UDPGA. The series is classed as ADME.

One may read the Km as the substrate concentration at which the rate is half of its maximum. One may read the fraction unbound as the share of the substance not bound to proteins or other matrix. For `COc1ccc(C(=O)Nc2cccc(O)c2NC(=O)c2ccc(N3CCCN(C)CC3)cc2)cc1.O=C(O)CCC(=O)O`, the figures for the Km at 10 min in [1] and in [7] were 27.3 µM and over 250 µM, respectively. Moreover, the Drug metabolism in [2] and in [10] was under 0.01 nmol/min/mg in each case. Further, in [3], the clearance was 39.8 µL/min/mg. Also, the fraction unbound at 10 min, up to 250 µM in series [4] is 0.72. For the same molecule, the Ratio in series [5] worked out at 30; in series [8], 6.9; in [9], 4.2. Besides, in series [6], the Ki was 463 µM.

The values above are taken from ChEMBL document CHEMBL3526122, “Identification of UDP-glucuronosyltransferases responsible for the glucuronidation of darexaban, an oral factor Xa inhibitor, in human liver and intestine” (Drug Metab Dispos, 2012).
